pIC50: −log10 of the molar value. Like-named read-outs stand apart in the source and are kept apart here.
Key:
[1] = test system: MX-1 (human breast carcinoma) cells; test: in vitro growth inhibition, cytotoxicity assay (Promega CellTiter Blue Cell Viability Assay); type: cell-based; details: read-out: IC50, μM MX-1
Protocol: After 24 hrs., cells were exposed to various concentrations of compound in DMSO and cultured for another 72 hrs. 100 ul of media were removed and 20 ul of Promega CellTiter Blue reagent were added to each well and shaken to mix. […] The fluorescence produced is proportional to the number of viable cells. After plotting fluorescence produced against drug concentration, the IC50 was calculated as the […] of the resulting non-linear regression.

[2] = cited from earlier work
[3] = test system: HSV-1; details: cited from earlier work
[4] = test system: cellular growth; details: read-out: concentration that inhibited cellular growth 50% in comparison with untreated controls; cited from earlier work
[5] = MX-1 cells, 72 hrs exposure, CellTiter Blue

## 18-N-(2-Furo)amide-21-hydroxylgeldanamycin [Compound 10]
[1]; [5]
  IC50: 7.2 µM

## 18-N-(2-Trifluoro)benzamide-21-hydroxylgeldanamycin [Compound 4]
[1]; [5]
  IC50: 0.68 µM

## 18-N-(3,4-Dichloro)benzamide-21-hydroxylgeldanamycin [Compound 9]
[1]; [5]
  IC50: 0.8 µM

## 18-N-(3,4-Dichloro)benzamide-21-methoxylgeldanamycin [Compound 70]
[1]; [5]
  IC50: 12.4 µM

## 18-N-(4-Cyano)benzamide-21-hydroxylgeldanamycin [Compound 7]
[1]; [5]
  IC50: 0.13 µM

## 18-N-(4-Fluoro)benzamide-21-hydroxylgeldanamycin [Compound 8]
[1]; [5]
  IC50: 2 µM

## 18-N-(4-Methoxy)benzamide-21-hydroxylgeldanamycin [Compound 5]
[1]; [5]
  IC50: 0.29 µM

## 18-N-(4-Nitro)benzamide-21-hydroxylgeldanamycin [Compound 3]
[1]; [5]
  IC50: 0.42 µM

## 18-N-(4-Phenyl)benzamide-21-hydroxylgeldanamycin [Compound 6]
[1]; [5]
  IC50: 0.081 µM

## 18-N-Benzamide-21-hydroxylgeldanamycin [Compound 1]
[1]; [5]
  IC50: 1.9 µM

## 18-N-Benzylcarbamate-21-hydroxylgeldanamycin [Compound 16]
[1]; [5]
  IC50: 0.088 µM

## 18-N-Benzylurea-21-hydroxylgeldanamycin [Compound 49]
[1]; [5]
  IC50: 2.4 µM

## 18-N-Lauramide-21-hydroxylgeldanamycin [Compound 2]
[1]; [5]
  IC50: 1.3 µM

## 18-N-iso-Nicotinamide-21-hydroxylgeldanamycin [Compound 11]
[1]; [5]
  IC50: 0.1 µM

## C=CC(=O)Nc1cc2c(O)c(c1OC)CC(C)CC(OC)C(O)C(C)C=C(C)C(OC(N)=O)C(OC)C=CC=C(C)C(=O)N2 (centres unmarked) [Compound 12, 18-N-Acrylamide-21-hydroxylgeldanamycin]
[1]; [5]
  IC50: 15.3 µM

## C=CCNC1=C2C[C@@H](C)C[C@H](OC)[C@H](O)[C@@H](C)/C=C(\C)[C@H](OC(N)=O)[C@@H](OC)/C=C\C=C(/C)C(=O)NC(=CC1=O)C2=O [Compound 17-AAG, 17-allylaminogeldanamycin, reference compound]
[1]; Homo sapiens, MX1, 72 h
  IC50: 1.7 µM
[2]
  water solubility: limited aqueous solubility

## COc1c(NS(=O)(=O)c2ccc(C(F)(F)F)cc2)cc2c(O)c1CC(C)CC(OC)C(O)C(C)C=C(C)C(OC(N)=O)C(OC)C=CC=C(C)C(=O)N2 (centres unmarked) [Compound 29, 18-N-(4-trifluoromethylbenzene)sulfamide-21-hydroxylgeldanamycin]
[1]; [5]
  IC50: 0.078 µM

## COC1=C2C[C@@H](C)C[C@H](OC)[C@H](O)[C@@H](C)/C=C(\C)[C@H](OC(N)=O)[C@@H](OC)/C=C\C=C(/C)C(=O)NC(=CC1=O)C2=O [GA, Geldanamycin]
[1]; Homo sapiens, MX1, MX-1 cells, 72 hrs exposure, CellTiter Blue
  IC50: 0.5 µM
[3]; cellular growth vs HSV-1 replication
  therapeutic index: over 3700
[3]; in vitro, read-out: 50% inhibitory concentration, HSV-1 replication in vitro
  pIC50: 7.03
[4]
  pIC50: 3.46
[2]
  water solubility: poor water solubility
